Patent publication EP0683787B1, “4'-O-SULFONYL-ANTHRACYCLINE DERIVATIVES” (PHARMACIA & UPJOHN S.p.A., priority 1993, dated 1995)
In brackets after ≈: the same amount, converted by molar mass.

How the values were obtained:
[1] = tested on: LoVo (colon adenocarcinoma); assay: Colony assay, cytotoxic activity on LoVo cells; assay type: cell-based; details: Homo sapiens, Colony assay: 4 h treatment, concentration inhibiting 50% colony formation
Description: (§1) The cytotoxic activity is reported as IC50, the concentration inhibiting 50% of colony formation, calculated on concentration response curves. Resistance index R.I. is the ratio between the IC50 on resistant cells and the IC50 on sensitive cells.

[2] = tested on: LoVo/DX (colon adenocarcinoma resistant to doxorubicin); assay: Colony assay, cytotoxic activity on LoVo/DX cells; assay type: cell-based, human; details: for R.I. (Resistance Index): (IC50 Lovo/DX)/(IC50 LoVo); for IC50: Homo sapiens, LoVo/DX, Colony assay: 4 h treatment, concentration inhibiting 50% colony formation
Description: as §1

[3] = tested on: P388 murine leukaemia resistant to doxorubicin; assay: Antitumor activity in vivo on P388/DX leukaemia; set-up: species or system BD2F1 mice; details: for T/C: Median survival time of treated mice/Median survival time of controls x 100, at Optimal Dose, i.v. one day after tumor transplantation; for O.D. (Optimal Dose): injected i.v. one day after tumor transplantation, 10^5 cell/mouse transplanted i.v.

| SMILES | IC50 [1] [µg/mL] | R.I. (Resistance Index) [2] | IC50 [2] [µg/mL] | T/C [3] [%] | O.D. (Optimal Dose) [3] [mg/kg] |
| --- | --- | --- | --- | --- | --- |
| CC(=O)[C@]1(O)Cc2c(O)c3c(c(O)c2[C@@H](O[C@H]2C[C@H](N)[C@H](OS(C)(=O)=O)[C@H](C)O2)C1)C(=O)c1ccccc1C3=O [Compound 1b, 4-demethoxy-4'-O-methansulfonyldaunorubicin] | 0.0105 (≈ 0.0182 µM) | 5.8 | 0.0605 (≈ 0.105 µM) | 133 | 8.1 |
| COc1cccc2c1C(=O)c1c(O)c3c(c(O)c1C2=O)C[C@@](O)(C(=O)CO)C[C@@H]3O[C@H]1C[C@H](N)[C@H](OS(C)(=O)=O)[C@H](C)O1 [Compound 2a, 4'-O-methansulfonyldoxorubicin] | 0.0173 (≈ 0.0278 µM) | 104.0 | 1.8 (≈ 2.9 µM) | 137 | 40.0 |
| COc1cccc2c1C(=O)c1c(O)c3c(c(O)c1C2=O)C[C@@](O)(C(=O)CO)C[C@@H]3O[C@H]1C[C@H](N)[C@H](O)[C@H](C)O1 [doxorubicin, reference compound] | 0.049 (≈ 0.0902 µM) |  | 2.55 (≈ 4.7 µM) |  | 16.9 |
